The results in this text go back to patent US20160237067A1, “SUBSTITUTED PHENYLALANINE DERIVATIVES” (BAYER PHARMA AKTIENGESELLSCHAFT, priority 2013, published 2016).

As a reminder, the IC50 is the concentration needed to halve the response being measured. Read a low IC50 as greater potency.

Structures can show the parent of a compound that is named as a salt.

The subject of one test is human and animal plasma. Kind of test: Determination of anticoagulatory activity: activated partial thromboplastin time (aPTT) in plasma. Format: biochemical. Conditions: C.K. Prest kit, 37° C., 3 minutes incubation, plasma species of Table B not stated. How it is done:
The anticoagulatory activity of the test substances is determined in vitro in human and animal plasma (for example mouse, rat, rabbit, pig and dog plasma). To this end, blood is drawn off in a mixing ratio of sodium citrate/blood of 1:9 using a 0.11 molar sodium citrate solution as receiver. Immediately after the blood has been drawn off, it is mixed thoroughly and centrifuged at about 4000 g for 15 minutes. The supernatant is pipetted off.
The activated partial thromboplastin time (aPTT) is determined in the presence of varying concentrations of test substance or the corresponding solvent using a commercial test kit (C.K. Prest from Diagnostica Stago). The test compounds are incubated with the plasma and the PTT reagent (cephalin, kaolin) at 37° C. for 3 minutes. Coagulation is then started by addition of a 25 mM aqueous calcium chloride solution, and the time when coagulation occurs is determined. The concentration of test substance which brings about a 1.5-fold extension of the aPTT is determined Activity data from this test are listed in Table B below: […]

The target in a further test is T1, human factor XIa (Homo sapiens, UniProt P03951).
T1 construct: purchased Kordia
T1 sequence (P03951 388-625 limits assumed): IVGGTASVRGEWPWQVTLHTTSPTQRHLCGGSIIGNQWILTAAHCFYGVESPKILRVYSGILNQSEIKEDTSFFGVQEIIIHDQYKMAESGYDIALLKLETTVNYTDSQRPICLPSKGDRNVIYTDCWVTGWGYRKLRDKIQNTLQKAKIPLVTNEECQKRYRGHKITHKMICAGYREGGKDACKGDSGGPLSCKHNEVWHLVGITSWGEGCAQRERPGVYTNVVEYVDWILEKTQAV
T1 sequence (P03951 19-387 partner limits assumed): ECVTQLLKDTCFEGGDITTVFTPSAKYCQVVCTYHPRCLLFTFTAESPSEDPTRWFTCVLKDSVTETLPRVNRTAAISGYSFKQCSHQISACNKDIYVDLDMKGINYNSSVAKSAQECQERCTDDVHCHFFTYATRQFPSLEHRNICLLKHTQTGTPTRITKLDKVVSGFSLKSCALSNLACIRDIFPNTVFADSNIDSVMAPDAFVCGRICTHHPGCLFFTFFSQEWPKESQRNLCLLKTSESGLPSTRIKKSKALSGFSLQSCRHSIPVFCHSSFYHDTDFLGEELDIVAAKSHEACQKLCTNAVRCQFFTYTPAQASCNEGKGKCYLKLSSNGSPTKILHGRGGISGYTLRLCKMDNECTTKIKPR
Kind of test: Measurement of FXIa inhibition (fluorogenic peptide substrate Boc-Glu(OBzl)-Ala-Arg-AMC). In kind it is biochemical. To be noted: factor XIa from Kordia 0.45 nM; 15 min preincubation; 30 min at 22° C. As for the experimental part:
The factor XIa inhibition of the substances according to the invention is determined using a biochemical test system which utilizes the reaction of a peptidic factor XIa substrate to determine the enzymatic activity of human factor XIa. Here, factor XIa cleaves from the peptic factor XIa substrate the C-terminal aminomethylcoumarin (AMC), the fluorescence of which is measured. The determinations are carried out in microtitre plates.
Test substances are dissolved in dimethyl sulphoxide and serially diluted in dimethyl sulphoxide (3000 μM to 0.0078 μM; resulting final concentrations in the test: 50 μM to 0.00013 μM). In each case 1 μl of the diluted substance solutions is placed into the wells of white microtitre plates from Greiner (384 wells). Subsequently, the following are added successively: 20 μl of assay buffer (50 mmol/l Tris buffer pH 7.4; 100 mmol/l sodium chloride; 5 mmol/l calcium chloride; 0.1% bovine serum albumin) and 20 μl of factor XIa from Kordia (0.45 nM in assay buffer). After 15 min of incubation, the enzyme reaction is started by addition of 20 μl of the factor XIa substrate Boc-Glu(OBzl)-Ala-Arg-AMC dissolved in assay buffer (10 μM in assay buffer) from Bachem, the mixture is incubated at room temperature (22° C.) for 30 min and fluorescence is then measured (excitation: 360 nm, emission: 460 nm). The measured emissions of the test batches with test substance are compared to those of control batches without test substance (only dimethyl sulphoxide instead of test substance in dimethyl sulphoxide), and IC50 values are calculated from the concentration/activity relationships.

On to `Cc1ccc(C(=O)N2CCNCC2)cc1-c1ccc(C[C@H](NC(=O)[C@H]2CC[C@H](CN)CC2)C(=O)Nc2ccc(-c3nn[nH]n3)cc2)cc1` [Example 12, trans-4-(Aminomethyl)-N-[(2S)-3-[2′-methyl-5′-(piperazin-1-ylcarbonyl)biphenyl-4-yl]-1-oxo-1-{[4-(2H-tetrazol-5-yl)phenyl]amino}propan-2-yl]cyclohexanecarboxamide hydrochloride], for which the “aPTT (concentration of test substance which brings about a 1.5-fold extension of the aPTT)” value in the test with human and animal plasma came out at 0.49 µmol/L. On human factor XIa, this compound showed an IC50 of 8.1 nM.
As for `NC[C@H]1CC[C@H](C(=O)N[C@@H](Cc2ccc(-c3cccc(S(N)(=O)=O)c3)cc2)C(=O)Nc2ccc(-c3nnn[nH]3)cc2)CC1` [Example 4, trans-4-(Aminomethyl)-N-[(2S)-1-oxo-3-(3′-sulphamoylbiphenyl-4-yl)-1-{[4-(1H-tetrazol-5-yl)phenyl]amino}propan-2-yl]cyclohexanecarboxamide hydrochloride], the “aPTT (concentration of test substance which brings about a 1.5-fold extension of the aPTT)” value in the test with human and animal plasma came to 0.16 µmol/L. This compound came in with an IC50 at human factor XIa of 3.1 nM.
For `Cc1ccc(C#N)cc1-c1ccc(C[C@H](NC(=O)[C@H]2CC[C@H](CN)CC2)C(=O)Nc2ccc(-c3nn[nH]n3)cc2)cc1` [Example 21, trans-4-(Aminomethyl)-N-[(2S)-3-(5′-cyano-2′-methylbiphenyl-4-yl)-1-oxo-1-{[4-(2H-tetrazol-5-yl)phenyl]amino}propan-2-yl]cyclohexanecarboxamide hydrochloride], in that order: 0.22 µmol/L and 8.3 nM.
For `Cc1ccc(S(=O)(=O)N2CCCC2)cc1-c1ccc(C[C@H](NC(=O)[C@H]2CC[C@H](CN)CC2)C(=O)Nc2ccc3[nH]c(=O)[nH]c3c2)cc1` [Example 7, trans-4-(Aminomethyl)-N-{(2S)-3-[2′-methyl-5′-(pyrrolidin-1-ylsulphonyl)biphenyl-4-yl]-1-oxo-1-[(2-oxo-2,3-dihydro-1H-benzimidazol-5-yl)amino]propan-2-yl}cyclohexanecarboxamide hydrochloride], in that order: 0.39 µmol/L and 11 nM.
For `CCN(CC)CCNC(=O)c1cccc(-c2ccc(C[C@H](NC(=O)[C@H]3CC[C@H](CN)CC3)C(=O)Nc3ccc(-c4nn[nH]n4)cc3)cc2)c1` [Example 14, 4′-[(2S)-2-({[trans-4-(Aminomethyl)cyclohexyl]carbonyl}amino)-3-oxo-3-{[4-(2H-tetrazol-5-yl)phenyl]amino}propyl]-N-[2-(diethylamino)ethyl]biphenyl-3-carboxamide hydrochloride], in that order: 0.35 µmol/L and 15 nM.
Consider `Cc1ccc(C(=O)N[C@H]2CC[C@H](O)CC2)cc1-c1ccc(C[C@H](NC(=O)[C@H]2CC[C@H](CN)CC2)C(=O)Nc2ccc(-c3nn[nH]n3)cc2)cc1` [Example 32, 4′-[(2S)-2-({[trans-4-(Aminomethyl)cyclohexyl]carbonyl}amino)-3-oxo-3-{[4-(2H-tetrazol-5-yl)phenyl]amino}propyl]-N-(trans-4-hydroxycyclohexyl)-6-methylbiphenyl-3-carboxamide hydrochloride], for which the “aPTT (concentration of test substance which brings about a 1.5-fold extension of the aPTT)” value with human and animal plasma came to 0.15 µmol/L. In addition, the 50% inhibitory concentration (IC50) at human factor XIa was 4.7 nM.
For `Cc1ccc(S(=O)(=O)N2CCOCC2)cc1-c1ccc(C[C@H](NC(=O)[C@H]2CC[C@H](CN)CC2)C(=O)Nc2ccc(-c3nnn[nH]3)cc2)cc1` [Example 2, trans-4-(Aminomethyl)-N-[(2S)-3-[2′-methyl-5′-(morpholin-4-ylsulphonyl)biphenyl-4-yl]-1-oxo-1-{[4-(1H-tetrazol-5-yl)phenyl]amino}propan-2-yl]cyclohexanecarboxamide hydrochloride], in that order: 0.22 µmol/L and 0.1 nM.
For `Cc1ccc(S(=O)(=O)N(C)C)cc1-c1ccc(C[C@H](NC(=O)[C@H]2CC[C@H](CN)CC2)C(=O)Nc2ccc3[nH]c(=O)[nH]c3c2)cc1` [Example 25, trans-4-(Aminomethyl)-N-{(2S)-3-[5′-(dimethylsulphamoyl)-2′-methylbiphenyl-4-yl]-1-oxo-1-[(2-oxo-2,3-dihydro-1H-benzimidazol-5-yl)amino]propan-2-yl}cyclohexanecarboxamide hydrochloride], in that order: 0.15 µmol/L and 6.1 nM.
For `Cc1ccc(-c2ccc(C[C@H](NC(=O)[C@H]3CC[C@H](CN)CC3)C(=O)Nc3ccc(-c4nn[nH]n4)cc3)cc2)cc1NC(=O)C1CCNCC1` [Example 22, N-{4[(2S)-2-({[trans-4-(Aminomethyl)cyclohexyl]carbonyl}amino)-3-oxo-3-{[4-(2H-tetrazol-5-yl)phenyl]amino}propyl]-4-methylbiphenyl-3-yl}piperidine-4-carboxamide hydrochloride], in that order: 0.34 µmol/L and 25 nM.
For the compound `Cc1c(F)cc(C(=O)NC(C)C)cc1-c1ccc(C[C@H](NC(=O)[C@H]2CC[C@H](CN)CC2)C(=O)Nc2ccc(-c3nn[nH]n3)cc2)cc1` [Example 30, 4′-[(2S)-2-({[trans-4-(Aminomethyl)cyclohexyl]carbonyl}amino)-3-oxo-3-{[4-(2H-tetrazol-5-yl)phenyl]amino}propyl]-5-fluoro-N-isopropyl-6-methylbiphenyl-3-carboxamide hydrochloride], in the test on human and animal plasma, the “aPTT (concentration of test substance which brings about a 1.5-fold extension of the aPTT)” value was found to be 0.2 µmol/L. This compound also yielded an IC50 against human factor XIa of 2.7 nM.
Take `Cc1ccc(-c2ccc(C[C@H](NC(=O)[C@H]3CC[C@H](CN)CC3)C(=O)Nc3ccc(-c4nn[nH]n4)cc3)cc2)cc1NC(=O)C1CCOCC1` [Example 29, N-{4′-[(2S)-2-({[trans-4-(Aminomethyl)cyclohexyl]carbonyl}amino)-3-oxo-3-{[4-(2H-tetrazol-5-yl)phenyl]amino}propyl]-4-methylbiphenyl-3-yl}tetrahydro-2H-pyran-4-carboxamide hydrochloride]: the “aPTT (concentration of test substance which brings about a 1.5-fold extension of the aPTT)” value with human and animal plasma was determined as 0.3 µmol/L. This compound also returned an IC50 against human factor XIa of 11 nM.
For `NC[C@H]1CC[C@H](C(=O)N[C@@H](Cc2ccc(-c3cccc(OCCN4CCOCC4)c3)cc2)C(=O)Nc2ccc(-c3nn[nH]n3)cc2)CC1` [Example 6, trans-4-(Aminomethyl)-N-[(2S)-3-{3′-[2-(morpholin-4-yl)ethoxy]biphenyl-4-yl}-1-oxo-1-{[4-(2H-tetrazol-5-yl)phenyl]amino}propan-2-yl]cyclohexanecarboxamide hydrochloride], in that order: 0.54 µmol/L and 14 nM.
Turning to `CCN(CC)CCNC(=O)c1ccc(C)c(-c2ccc(C[C@H](NC(=O)[C@H]3CC[C@H](CN)CC3)C(=O)Nc3ccc(-c4nn[nH]n4)cc3)cc2)c1` [Example 10, 4′-[(2S)-2-({[trans-4-(Aminomethyl)cyclohexyl]carbonyl}amino)-3-oxo-3-{[4-(2H-tetrazol-5-yl)phenyl]amino}propyl]-N-[2-(diethylamino)ethyl]-6-methylbiphenyl-3-carboxamide hydrochloride], the “aPTT (concentration of test substance which brings about a 1.5-fold extension of the aPTT)” value in the test on human and animal plasma came out at 0.38 µmol/L. This compound displayed an IC50 on human factor XIa of 8 nM.
For `NC[C@H]1CC[C@H](C(=O)N[C@@H](Cc2ccc(-c3ccc(F)c(C(=O)NC4CCNCC4)c3)cc2)C(=O)Nc2ccc(-c3nn[nH]n3)cc2)CC1` [Example 35, 4′-[(2S)-2-({[trans-4-(Aminomethyl)cyclohexyl]carbonyl}amino)-3-oxo-3-{[4-(2H-tetrazol-5-yl)phenyl]amino}propyl]-4-fluoro-N-(piperidin-4-yl)biphenyl-3-carboxamide hydrochloride], in that order: 0.2 µmol/L and 10 nM.
